Assay results reported in patent publication US11684614B2, “Formulations of hydroxypyridonate actinide/lanthanide decorporation agents” (priority 2017, dated 2023).
“And” between values parts separate entries of the source, which are not always exact repeats. Identical values can stand only once.

Experiments:
[1] = Distribution coefficient measurement; type: physicochemical; conditions: for Dow / Log(Dow): listed as 3,4,3-LI(1,2-HOPO)
[2] = Stability in gastric fluid; type: in vitro ADME
[3] = Non-GLP 7-day repeat dose studies in beagle dogs, pharmacokinetics incl. iv group (SRI No. B677-13, M835-11); type: in vivo
Description: These two pilot studies included an iv administration group so that oral bioavailability could be calculated. The oral bioavailability was low at <3% and essentially the same in both studies regardless of whether the dogs received formulated capsules or 3,4,3-L1(1,2-HOPO) dissolved in PBS without sodium oleate. […] Volume of distribution was 0.3 L/kg, consistent with drug that is distributed primarily to the extracellular space.

[4] = GLP single oral dose cardiovascular assessment in beagle dogs (electrocardiogram, blood pressure); type: in vivo; conditions: 37.5, 75, or 150 mg/kg single oral dose
Experimental: Cardiovascular parameters in beagle dogs after a single oral administration of formulated capsules was determined in a GLP study
Electrocardiograms and blood pressure were evaluated from 3 male and 3 female beagle dogs per dose group (0, 37.5, 75, or 150 mg/kg) at pretest, 1 and 4 hours post-dose, and 7 days after a single oral dose of formulated material (TABLE 8.1). […] Instances of increased or decreased blood pressure (hypertension or hypotension) in various dogs were considered sporadic or due to stress, excitement, or struggling during the time of recording and not test article related. In summary, electrocardiogram and blood pressure assessments in beagle dogs raised no cardiovascular safety concerns.

[5] = Prototype oral formulation preparation and physico-chemical characterization (Example 2); type: physicochemical; conditions: powder in bottle compositions
Experimental: Suitable formulation methodologies such as direct compression, dry compaction, and/or wet granulation processes were evaluated.
Powder in bottle (PIB) is one of the most convenient dosage form used in early stage clinical development because of its ease of use. In comparison with capsules, PIB can carry large dose and fill weights. […] The reason for evaluating each composition is also described. […] TABLE 2.14 describes the corresponding properties of the evaluated formulations.
TABLE 2.16 describes the corresponding properties of the evaluated formulations.
Chewable tablets are formulated for use in the mouth. They are usually uncoated, and are formulated to provide a release and absorption of the active ingredient(s) in the mouth/buccal cavity or from stomach. […] TABLE 2.18 describes the corresponding properties of the evaluated formulations.
Various compositions and processes (Direct compression & Wet granulation) were evaluated to formulate conventional tablets with 1000, 750 and/or 500 mg drug load. […]

[6] = Single oral dose GLP safety (toxicology) study in beagle dogs; type: in vivo
Experimental: The clinical formulation was tested in a single dose GLP toxicology and cardiovascular safety pharmacology study in beagle dogs.
Based on this study, the MTD in dogs after a single oral administration is considered to be greater than 150 mg/kg.

CYP2B6 = target: T1, CYP2B6 (Homo sapiens, UniProt P20813); test: CYP inhibition; type: in vitro ADME
T1 sequence (P20813 1-491): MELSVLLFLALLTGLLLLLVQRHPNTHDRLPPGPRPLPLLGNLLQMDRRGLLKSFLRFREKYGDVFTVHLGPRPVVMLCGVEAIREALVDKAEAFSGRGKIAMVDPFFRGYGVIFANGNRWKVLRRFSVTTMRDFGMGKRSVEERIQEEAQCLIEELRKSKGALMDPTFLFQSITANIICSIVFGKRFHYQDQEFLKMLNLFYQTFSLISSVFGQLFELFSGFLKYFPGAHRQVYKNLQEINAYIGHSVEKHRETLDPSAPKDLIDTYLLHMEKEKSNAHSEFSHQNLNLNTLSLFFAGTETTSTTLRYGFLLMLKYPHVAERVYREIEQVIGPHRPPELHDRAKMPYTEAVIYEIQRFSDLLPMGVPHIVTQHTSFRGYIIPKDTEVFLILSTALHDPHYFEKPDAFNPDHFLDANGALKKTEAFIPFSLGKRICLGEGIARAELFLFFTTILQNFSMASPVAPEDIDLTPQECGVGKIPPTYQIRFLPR

Stability in plasma = type: in vitro ADME
[7] = Plasma protein binding, rat; type: in vitro ADME; conditions: tested at 10 μg/ml
Experimental: Plasma protein binding differed across species; it was greatest in dog (95%), intermediate in human (29%), and lowest in rat (5%) when tested at 10 μg/ml.

[8] = 28-day oral gavage study in Sprague Dawley rats (SRI No. M512-07); type: in vivo
[9] = Buffering Agent 1: 7.5 E−02 M HCl, pH 1.18, samples A11-A13
[10] = Buffering Agent 1: 7.5 E−02 M HCl, pH 1.20, samples B11-B13
[11] = Buffering Agent 2: 7.5 E−03 M HCl, pH 2.15, samples A11-A13
[12] = Buffering Agent 2: 7.5 E−03 M HCl, pH 2.16, samples B11-B13
[13] = Buffering Agent 3: 7.5 E−04 M HCl, pH 3.21, samples A31-A33
[14] = Buffering Agent 4: 1 E−02 M Acetic Acid, pH 4.19, samples A41-A43
[15] = Buffering Agent 5: 1 E−02 M Acetic Acid, pH 5.13, samples A51-A53
[16] = Buffering Agent 5: 1 E−02 M Acetic Acid, pH 5.20, samples B51-B53
[17] = Buffering Agent 6: 1 E−02 M MES, pH 6.30, samples A61-A63
[18] = Buffering Agent 7: 1 E−02 M HEPES, pH 6.75, samples A71-A73
[19] = Buffering Agent 8: 1 E−02 M HEPES, pH 7.42, samples A81-A83
[20] = Buffering Agent 9: 1 E−02 M HEPES, pH 8.00, samples A91-A93
[21] = Day 15, the one high-dose female with renal findings

## O=C(NCCCN(CCCCN(CCCNC(=O)c1cccc(=O)n1O)C(=O)c1cccc(=O)n1O)C(=O)c1cccc(=O)n1O)c1cccc(=O)n1O [3,4,3-L1(1,2-HOPO)]
[1]; [9]
  Dow: 0.122 and 0.115 and 0.112
  Log(Dow): −0.915 and −0.938 and −0.952
[1]; Buffering Agent 1: 7.5 E−02 M HCl, pH 1.18, series A
  Log(Dow), unlabelled summary row (mean of samples): −0.935
[1]; [10]
  Dow: 0.318 and 0.327 and 0.285
  Log(Dow): −0.497 and −0.485 and −0.545
[1]; Buffering Agent 1: 7.5 E−02 M HCl, pH 1.20, series B
  Log(Dow), unlabelled summary row (mean of samples): −0.509
[1]; [11]
  Dow: 0.093 and 0.105 and 0.110
  Log(Dow): −1.031 and −0.980 and −0.958
[1]; Buffering Agent 2: 7.5 E−03 M HCl, pH 2.15, series A
  Log(Dow), unlabelled summary row (mean of samples): −0.990
[1]; [12]
  Dow: 0.503 and 0.491 and 0.469
  Log(Dow): −0.299 and −0.309 and −0.329
[1]; Buffering Agent 2: 7.5 E−03 M HCl, pH 2.16, series B
  Log(Dow), unlabelled summary row (mean of samples): −0.312
[1]; Buffering Agent 3: 7.5 E−04 M HCl, pH 3.13, series B
  Log(Dow), unlabelled summary row (mean of samples): −1.499
[1]; [13]
  Dow: 0.180 and 0.170 and 0.184
  Log(Dow): −0.744 and −0.769 and −0.735
[1]; Buffering Agent 3: 7.5 E−04 M HCl, pH 3.21, series A
  Log(Dow), unlabelled summary row (mean of samples): −0.750
[1]; Buffering Agent 4: 1 E−02 M Acetic Acid, pH 4.00, series B
  Log(Dow), unlabelled summary row (mean of samples): −1.566
[1]; [14]
  Dow: 0.076 and 0.061 and 0.068
  Log(Dow): −1.119 and −1.218 and −1.166
[1]; Buffering Agent 4: 1 E−02 M Acetic Acid, pH 4.19, series A
  Log(Dow), unlabelled summary row (mean of samples): −1.168
[1]; [15]
  Dow: 0.044 and 0.027 and 0.050
  Log(Dow): −1.360 and −1.564 and −1.299
[1]; Buffering Agent 5: 1 E−02 M Acetic Acid, pH 5.13, series A
  Log(Dow), unlabelled summary row (mean of samples): −1.408
[1]; [16]
  Dow: 0.056 and 0.082 and 0.103
  Log(Dow): −1.251 and −1.086 and −0.989
[1]; Buffering Agent 5: 1 E−02 M Acetic Acid, pH 5.20, series B
  Log(Dow), unlabelled summary row (mean of samples): −1.109
[1]; Buffering Agent 6: 1 E−02 M MES, pH 6.15, samples B61-B63
  Log(Dow): −1.374 and −1.645
[1]; Buffering Agent 6: 1 E−02 M MES, pH 6.15, series B (B61 prints #NUM!)
  Log(Dow), unlabelled summary row (mean of samples): −1.510
[1]; [17]
  Dow: 0.064 and 0.077 and 0.082
  Log(Dow): −1.191 and −1.113 and −1.086
[1]; Buffering Agent 6: 1 E−02 M MES, pH 6.30, series A
  Log(Dow), unlabelled summary row (mean of samples): −1.130
[1]; [18]
  Dow: 0.150 and 0.120 and 0.105
  Log(Dow): −0.824 and −0.921 and −0.977
[1]; Buffering Agent 7: 1 E−02 M HEPES, pH 6.75, series A
  Log(Dow), unlabelled summary row (mean of samples): −0.908
[1]; Buffering Agent 7: 1 E−02 M HEPES, pH 6.83, series B
  Log(Dow), unlabelled summary row (mean of samples): −1.680
[1]; [19]
  Dow: 0.130 and 0.132 and 0.107
  Log(Dow): −0.885 and −0.879 and −0.970
[1]; Buffering Agent 8: 1 E−02 M HEPES, pH 7.42, series A
  Log(Dow), unlabelled summary row (mean of samples): −0.912
[1]; Buffering Agent 8: 1 E−02 M HEPES, pH 7.46, series B
  Log(Dow), unlabelled summary row (mean of samples): −1.173
[1]; [20]
  Dow: 0.110 and 0.074 and 0.132
  Log(Dow): −0.957 and −1.128 and −0.879
[1]; Buffering Agent 9: 1 E−02 M HEPES, pH 8.00, series A
  Log(Dow), unlabelled summary row (mean of samples): −0.988
[1]; Buffering Agent 9: 1 E−02 M HEPES, pH 8.00, series B
  Log(Dow), unlabelled summary row (mean of samples): −1.920
[2]
  stability in gastric fluid: degraded slightly
[3]; after 7 days of dosing
  accumulation in the plasma: did not accumulate in the plasma
[3]; formulated capsules or API in PBS without sodium oleate
  oral bioavailability: < 3%
[3]; iv 37.6 mg/kg (50 μmol/kg)
  Volume of distribution: 0.3 L/kg
  clearance (Cl): 9.9 mL/min/kg
  mean AUCinf: 64000 ng·h/mL
  observed peak plasma level: 115 ± 11 µg/mL
  t½: 24 min
[4]
  electrocardiographic, heart rate, or blood pressure findings: no electrocardiographic, heart rate, or blood pressure findings
[5]
  behavior when reconstituted in water: formed a sticky mass
[6]; 3,4,3-L1(1,2-HOPO) treatment groups
  time of slight to moderate emesis post-dose: < 2 h
[6]; 37.5, 75, or 150 mg/kg
  changes in body weight, food consumption, ophthalmology, cardiovascular assessments, clinical pathology, urinalysis, gross necropsy observations, or organ weights: no meaningful changes
[6]; [21]
  increase in BUN relative to pre-test: 1.8 fold
  increase in CR relative to pre-test: 1.3 fold
[6]; Days 2 or 15, treated groups compared with controls
  serum iron, unsaturated iron binding capacity, total iron binding capacity, magnesium, and ferritin: none of these parameters were meaningfully altered
[6]; high dose group
  Post-dose emesis: 3 dogs out of 12 dogs per group
[6]; high-dose (150 mg/kg) males, Day 1
  Extreme diarrhea, incidence: 33%
[6]; high-dose group (150 mg/kg) females, Day 1
  Slight diarrhea, incidence: 33%
[6]; high-dose group (150 mg/kg) males, Day 1
  Slight diarrhea, incidence: 17%
[6]; high-dose group (150 mg/kg), Day 15 recovery sacrifice
  Renal findings (tubular casts and dilation, interstitial hemorrhage, hemosiderin pigmentation), incidence: 1 of 3
[6]; low dose group
  Post-dose emesis: 1 dogs out of 12 dogs per group
[6]; low-dose group (37.5 mg/kg)
  Diarrhea: absent
[6]; mid dose group
  Post-dose emesis: 2 dogs out of 12 dogs per group
[6]; mid-dose group (75 mg/kg) females, Day 1
  Slight diarrhea, incidence: 67%
[6]; single oral administration, dogs
  MTD: greater than 150 mg/kg
CYP2B6
  inhibition of CYP2B6 activity: did not inhibit
Stability in plasma
  stability in plasma: stable
[7]
  Plasma protein binding: 5%
[8]; 28 days of oral gavage
  renal findings: no renal findings
[8]; oral gavage 7.7-76.9 mg/kg (10-102 μmol/kg) for 28 days
  soft stools or diarrhea: not observed
